Laboratory results: patent US10406207B2, “Peptide conjugates of GLP-1 receptor agonists and gastrin and their use” (priority 2010, dated 2019)
Like-named read-outs stand apart in the source and are kept apart here. Square brackets hold non-standard residues; d marks the D form. Peptide text beside a SMILES is read from it. Orn = NCCC[C@H](N)C(=O)O; AEEA = NCCOCCOCC(=O)O

Experiments:
human GLP-1 R = target: T1, human GLP-1 R (Homo sapiens, UniProt P43220); assay: Human GLP-1 receptor efficacy assay (cAMP induction, FlashPlate); assay type: cell-based; details: read-out: hGLP-1 R EC50
T1 construct: expressed in transfected cells
T1 sequence (P43220 24-463): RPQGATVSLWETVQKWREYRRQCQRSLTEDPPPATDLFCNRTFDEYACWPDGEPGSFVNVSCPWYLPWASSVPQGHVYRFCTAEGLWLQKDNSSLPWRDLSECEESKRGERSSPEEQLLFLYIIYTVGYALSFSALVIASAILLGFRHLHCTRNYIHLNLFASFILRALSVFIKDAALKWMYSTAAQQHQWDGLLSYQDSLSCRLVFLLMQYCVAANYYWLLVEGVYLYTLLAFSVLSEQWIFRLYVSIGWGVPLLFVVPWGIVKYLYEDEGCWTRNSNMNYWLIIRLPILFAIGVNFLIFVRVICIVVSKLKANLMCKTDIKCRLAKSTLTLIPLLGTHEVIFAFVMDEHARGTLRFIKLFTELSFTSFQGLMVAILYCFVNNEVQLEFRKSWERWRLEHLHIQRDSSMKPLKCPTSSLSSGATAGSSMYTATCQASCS
Method: On the day of analysis, growth medium was removed and the cells were washed once with 200 μl Tyrode buffer [Tyrode's Salts (9.6 g/l), 10 mM HEPES, pH 7.4]. […] The reaction was stopped by addition of 25 μl 0.5 M HCl and incubated on ice for 60 min.

human CCK-B R = target: T2, human CCK-B R (Homo sapiens, UniProt P32239); assay: Human CCK-B receptor efficacy assay (AlphaScreen SureFire p-ERK); assay type: cell-based; details: read-out: hCCK-B R EC50
T2 construct: expressed in transfected cells
T2 sequence (P32239 1-447): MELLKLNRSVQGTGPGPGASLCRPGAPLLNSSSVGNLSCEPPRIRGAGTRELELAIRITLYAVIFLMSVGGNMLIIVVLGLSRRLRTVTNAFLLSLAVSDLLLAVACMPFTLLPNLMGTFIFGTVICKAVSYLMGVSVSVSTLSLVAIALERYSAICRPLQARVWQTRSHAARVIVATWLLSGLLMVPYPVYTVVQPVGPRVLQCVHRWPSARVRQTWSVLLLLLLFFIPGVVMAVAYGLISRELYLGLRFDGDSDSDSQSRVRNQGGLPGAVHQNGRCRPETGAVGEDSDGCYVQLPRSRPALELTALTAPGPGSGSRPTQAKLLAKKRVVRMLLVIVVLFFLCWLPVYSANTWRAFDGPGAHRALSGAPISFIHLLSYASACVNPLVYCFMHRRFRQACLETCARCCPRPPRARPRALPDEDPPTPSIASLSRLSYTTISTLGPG
Method: CCK-B Receptor (CCK-B R) Efficacy Assay:
In vitro effects of peptide conjugates of the invention were estimated by measuring p-ERK (using the AlphaScreen™ SureFire p-ERK assay) in HEK293 cells stably expressing the human and mouse CCK-B R (high-affinity Gastrin receptor), respectively. The Gastrin receptor efficacy assays (AlphaScreen™ SureFire p-ERK assay) were performed as follows:
The CCK-B R expressing cells in question were seeded at 20,000 cells/well in 100 μl growth medium [DMEM, 10% FCS, Penicillin (100 IU/ml), Streptomycin (100 μg/ml)] in a 96-well plate coated with poly-D-lysine. The cells were incubated in an incubator (37° C., 5% 002) for two days.
The growth medium was changed to 80 μl of serum-free medium [DMEM, Penicillin (100 IU/ml), Streptomycin (100 μg/ml)] per well, and incubation of the cells was continued for 19 hours in the incubator (37° C., 5% CO2).
After 19 hours, 20 μl of serum-free medium containing one of 5 different concentrations of peptide conjugate was added (performed in triplicate for each concentration), and the cells were incubated for 5 min. at room temperature. • 2. The stimulation medium was discarded by quickly turning the plate upside down, and 60 μl 1× lysis buffer (from the SureFire assay kit) was added per well. • 3. The plate was shaken on a plate-shaker for 5 min and then placed on ice. • 4. SureFire P-ERK assay: 4 μl of each supernatant was transferred to a 384 well proxiplate (Perkin Elmer). • 5. 4 μl of each of the two control lysates (unstimulated and stimulated) were added to the proxiplate in duplicate. • 6. […] 7 μl of the latter reaction buffer+activation buffer+beads per well were added in the proxiplate, the mix being resuspended carefully before addition to the wells. • 7. The plate was incubated for 2 hours in a dark box in a 22° C. incubator. • 8. The plate was analyzed on an Envision™ light-emission plate reader (Perkin-Elmer) using the appropriate reading program (Perkin-Elmer).

Row | SMILES | EC50 (human GLP-1 R; Table 2) | EC50 (human CCK-B R; Table 2) | EC50 (human GLP-1 R; Table 3) | EC50 (human CCK-B R; Table 3)
1 | CC[C@H](C)[C@H](NC(=O)[C@H](Cc1ccccc1)NC(=O)[C@H](CC(C)C)NC(=O)[C@H](CCCNC(=N)N)NC(=O)[C@@H](NC(=O)[C@H](C)NC(=O)[C@H](CCC(=O)O)NC(=O)[C@H](CCC(=O)O)NC(=O)[C@H](CCC(=O)O)NC(=O)[C@H](CC(C)C)NC(=O)[C@H](Cc1ccc(O)cc1)NC(=O)[C@H](CCCCN)NC(=O)[C@H](CO)NC(=O)[C@H](CC(C)C)NC(=O)[C@H](CCC(=O)O)NC(=O)[C@H](CO)NC(=O)[C@@H](NC(=O)[C@H](Cc1ccccc1)NC(=O)[C@@H](NC(=O)CNC(=O)[C@H](CCC(=O)O)NC(=O)CNC(=O)[C@@H](N)Cc1c[nH]cn1)[C@@H](C)O)[C@@H](C)O)C(C)C)C(=O)N[C@@H](CCC(=O)O)C(=O)N[C@@H](Cc1ccccc1)C(=O)N[C@@H](CC(C)C)C(=O)N[C@@H](CCCCN)C(=O)NCCOCCOCC(=O)N[C@@H](CCCN)C(=O)N[C@@H](Cc1c[nH]c2ccccc12)C(=O)N[C@@H](CC(C)C)C(=O)N[C@@H](CC(=O)O)C(=O)N[C@@H](Cc1ccccc1)C(N)=O [Compound 99, [Glu9,Leu14,Phe25,Tyr13]Exendin-4(1-27)-Peg3-Orn-[Leu2]Gastrin4] (H-HGEGTFTSELSKYLEEEAVRLFIEFLK[AEEA][Orn]WLDF-NH2) | 0.041 nM | 51 nM |  | 
2 | CC[C@H](C)[C@H](NC(=O)[C@H](Cc1ccccc1)NC(=O)[C@H](CC(C)C)NC(=O)[C@H](CCCNC(=N)N)NC(=O)[C@@H](NC(=O)[C@H](C)NC(=O)[C@H](CCC(=O)O)NC(=O)[C@H](CCC(=O)O)NC(=O)[C@H](CCC(=O)O)NC(=O)[C@H](CC(C)C)NC(=O)[C@H](Cc1ccc(O)cc1)NC(=O)[C@H](CCCCN)NC(=O)[C@H](CO)NC(=O)[C@H](CC(C)C)NC(=O)[C@H](CCC(=O)O)NC(=O)[C@H](CO)NC(=O)[C@@H](NC(=O)[C@H](Cc1ccccc1)NC(=O)[C@@H](NC(=O)CNC(=O)[C@H](CCC(=O)O)NC(=O)CNC(=O)[C@@H](N)Cc1c[nH]cn1)[C@@H](C)O)[C@@H](C)O)C(C)C)C(=O)N[C@@H](CCC(=O)O)C(=O)N[C@@H](Cc1ccccc1)C(=O)N[C@@H](CC(C)C)C(=O)N[C@@H](CCCCN)C(=O)NCCOCCOCC(=O)N[C@@H](Cc1c[nH]c2ccccc12)C(=O)N[C@@H](CC(C)C)C(=O)N[C@@H](CC(=O)O)C(=O)N[C@@H](Cc1ccccc1)C(N)=O [Compound 97, [Glu9,Leu14,Phe25,Tyr13]Exendin-4(1-27)-Peg3-[Leu2]Gastrin4] (H-HGEGTFTSELSKYLEEEAVRLFIEFLK[AEEA]WLDF-NH2) | 0.06 nM | 13 nM |  | 
3 | CCCCCCCCCCCCCCCC(=O)N[C@@H](CCC(=O)NCCCC[C@H](NC(=O)[C@H](C)NC(=O)[C@H](C)NC(=O)[C@H](CCC(N)=O)NC(=O)CNC(=O)[C@H](CCC(=O)O)NC(=O)[C@H](CC(C)C)NC(=O)[C@H](Cc1ccc(O)cc1)NC(=O)[C@H](CO)NC(=O)[C@H](CO)NC(=O)[C@@H](NC(=O)[C@H](CC(=O)O)NC(=O)[C@H](CO)NC(=O)[C@@H](NC(=O)[C@H](Cc1ccccc1)NC(=O)[C@@H](NC(=O)CNC(=O)[C@H](CCC(=O)O)NC(=O)C(C)(C)NC(=O)[C@@H](N)Cc1c[nH]cn1)[C@@H](C)O)[C@@H](C)O)C(C)C)C(=O)N[C@@H](CCC(=O)O)C(=O)N[C@@H](Cc1ccccc1)C(=O)N[C@H](C(=O)N[C@@H](C)C(=O)N[C@@H](Cc1c[nH]c2ccccc12)C(=O)N[C@@H](CC(C)C)C(=O)N[C@H](C(=O)N[C@@H](CCCNC(=N)N)C(=O)NCC(=O)N[C@@H](CCCNC(=N)N)C(=O)NCC(=O)NCCOCCOCC(=O)NCCOCCOCC(=O)N[C@@H](Cc1ccc(O)cc1)C(=O)NCC(=O)N[C@@H](Cc1c[nH]c2ccccc12)C(=O)N[C@@H](CC(C)C)C(=O)N[C@@H](CC(=O)O)C(=O)N[C@@H](Cc1ccccc1)C(N)=O)C(C)C)[C@@H](C)CC)C(=O)O [Compound 111, [Aib8,Arg34,Lys(Hexadecanoyl-isoGlu)26]GLP-1(7-37)-Peg3-Peg3-[Leu4]Gastrin6] |  |  | 0.088 nM | 59 nM
4 | CC[C@H](C)[C@H](NC(=O)[C@H](Cc1ccccc1)NC(=O)[C@H](CC(C)C)NC(=O)[C@H](CCCNC(=N)N)NC(=O)[C@@H](NC(=O)[C@H](C)NC(=O)[C@H](CCC(=O)O)NC(=O)[C@H](CCCCN)NC(=O)[C@H](CCC(=O)O)NC(=O)[C@H](CC(C)C)NC(=O)[C@H](Cc1ccc(O)cc1)NC(=O)[C@H](CCCNC(=N)N)NC(=O)[C@H](CO)NC(=O)[C@H](CC(C)C)NC(=O)[C@H](CC(=O)O)NC(=O)[C@H](CO)NC(=O)[C@@H](NC(=O)[C@H](Cc1ccccc1)NC(=O)[C@@H](NC(=O)CNC(=O)[C@H](CCC(=O)O)NC(=O)CNC(=O)[C@@H](N)Cc1c[nH]cn1)[C@@H](C)O)[C@@H](C)O)C(C)C)C(=O)N[C@@H](CCC(=O)O)C(=O)N[C@@H](Cc1ccccc1)C(=O)N[C@@H](CC(C)C)C(=O)N[C@@H](CCCNC(=N)N)C(=O)NCCOCCOCC(=O)N[C@@H](Cc1ccc(O)cc1)C(=O)NCC(=O)N[C@@H](Cc1c[nH]c2ccccc12)C(=O)N[C@@H](CC(C)C)C(=O)N[C@@H](CC(=O)O)C(=O)N[C@@H](Cc1ccccc1)C(N)=O [Compound 92, [Arg12,27,Leu14,Lys16,Phe25,Tyr13]Exendin-4(1-27)-Peg3-[Leu4]Gastrin6] (H-HGEGTFTSDLSRYLEKEAVRLFIEFLR[AEEA]YGWLDF-NH2) | 0.17 nM | 26 nM |  | 
5 | CC[C@H](C)[C@H](NC(=O)[C@H](Cc1ccccc1)NC(=O)[C@H](CC(C)C)NC(=O)[C@H](CCCNC(=N)N)NC(=O)[C@@H](NC(=O)[C@H](C)NC(=O)[C@H](CCC(=O)O)NC(=O)[C@H](CCC(=O)O)NC(=O)[C@H](CCC(=O)O)NC(=O)[C@H](CCSC)NC(=O)[C@H](Cc1ccc(O)cc1)NC(=O)[C@H](CCCCN)NC(=O)[C@H](CO)NC(=O)[C@H](CC(C)C)NC(=O)[C@H](CC(=O)O)NC(=O)[C@H](CO)NC(=O)[C@@H](NC(=O)[C@H](Cc1ccccc1)NC(=O)[C@@H](NC(=O)CNC(=O)[C@H](CCC(=O)O)NC(=O)CNC(=O)[C@@H](N)Cc1c[nH]cn1)[C@@H](C)O)[C@@H](C)O)C(C)C)C(=O)N[C@@H](CCC(=O)O)C(=O)N[C@@H](Cc1c[nH]c2ccccc12)C(=O)N[C@@H](CC(C)C)C(=O)N[C@@H](CCCCN)C(=O)N[C@@H](CC(N)=O)C(=O)NCCOCCOCC(=O)NCCOCCOCC(=O)N[C@@H](Cc1ccc(O)cc1)C(=O)NCC(=O)N[C@@H](Cc1c[nH]c2ccccc12)C(=O)N[C@@H](CC(C)C)C(=O)N[C@@H](CC(=O)O)C(=O)N[C@@H](Cc1ccccc1)C(N)=O [Compound 65, [Tyr13]Exendin-4(1-28)-Peg3-Peg3-[Leu4]Gastrin6] (H-HGEGTFTSDLSKYMEEEAVRLFIEWLKN[AEEA][AEEA]YGWLDF-NH2) | 0.046 nM | 12 nM |  | 
6 | CC[C@H](C)[C@H](NC(=O)[C@H](Cc1ccccc1)NC(=O)[C@H](CC(C)C)NC(=O)[C@H](CCCNC(=N)N)NC(=O)[C@@H](NC(=O)[C@H](C)NC(=O)[C@H](CCC(=O)O)NC(=O)[C@H](CCC(=O)O)NC(=O)[C@H](CCC(=O)O)NC(=O)[C@H](CC(C)C)NC(=O)[C@H](Cc1ccc(O)cc1)NC(=O)[C@H](CCCCN)NC(=O)[C@H](CO)NC(=O)[C@H](CC(C)C)NC(=O)[C@H](CCC(=O)O)NC(=O)[C@H](CO)NC(=O)[C@@H](NC(=O)[C@H](Cc1ccccc1)NC(=O)[C@@H](NC(=O)CNC(=O)[C@H](CCC(=O)O)NC(=O)CNC(=O)[C@@H](N)Cc1c[nH]cn1)[C@@H](C)O)[C@@H](C)O)C(C)C)C(=O)N[C@@H](CCC(=O)O)C(=O)N[C@@H](Cc1ccccc1)C(=O)N[C@@H](CC(C)C)C(=O)N[C@@H](CCCCN)C(=O)N[C@@H](CCCN)C(=O)NCCOCCOCC(=O)N[C@@H](Cc1c[nH]c2ccccc12)C(=O)N[C@@H](CC(C)C)C(=O)N[C@@H](CC(=O)O)C(=O)N[C@@H](Cc1ccccc1)C(N)=O [Compound 98, [Glu9,Leu14,Phe25,Tyr13]Exendin-4(1-27)-Orn-Peg3-[Leu2]Gastrin4] (H-HGEGTFTSELSKYLEEEAVRLFIEFLK[Orn][AEEA]WLDF-NH2) | 0.046 nM | 10 nM |  | 
7 | CC[C@H](C)[C@H](NC(=O)[C@H](Cc1ccccc1)NC(=O)[C@H](CC(C)C)NC(=O)[C@H](CCCNC(=N)N)NC(=O)[C@@H](NC(=O)[C@H](C)NC(=O)[C@H](CCC(=O)O)NC(=O)[C@H](CCC(=O)O)NC(=O)[C@H](CCC(=O)O)NC(=O)[C@H](CC(C)C)NC(=O)[C@H](Cc1ccc(O)cc1)NC(=O)[C@H](CCCCN)NC(=O)[C@H](CO)NC(=O)[C@H](CC(C)C)NC(=O)[C@H](CCC(=O)O)NC(=O)[C@H](CO)NC(=O)[C@@H](NC(=O)[C@H](Cc1ccccc1)NC(=O)[C@@H](NC(=O)CNC(=O)[C@H](CCC(=O)O)NC(=O)CNC(=O)[C@@H](N)Cc1c[nH]cn1)[C@@H](C)O)[C@@H](C)O)C(C)C)C(=O)N[C@@H](CCC(=O)O)C(=O)N[C@@H](Cc1ccccc1)C(=O)N[C@@H](CC(C)C)C(=O)N[C@@H](CCCCN)C(=O)N[C@@H](CCCN)C(=O)N[C@@H](CCCN)C(=O)N[C@@H](Cc1c[nH]c2ccccc12)C(=O)N[C@@H](CC(C)C)C(=O)N[C@@H](CC(=O)O)C(=O)N[C@@H](Cc1ccccc1)C(N)=O [Compound 100, [Glu9,Leu14,Phe25,Tyr13]Exendin-4(1-27)-Orn-Orn-[Leu2]Gastrin4] (H-HGEGTFTSELSKYLEEEAVRLFIEFLK[Orn][Orn]WLDF-NH2) | 0.11 nM | 860 nM |  | 
